From PubChem BioAssay (NCI)
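Grown in 96-well plates, cells were treated for 48 hours with each compound at five concentrations. Insufficient inhibition: endpoint recorded as highest concentration tested. GI50: concentration for 50% inhibition of growth. At the TGI there is no net growth.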

Experiments:
Test in all cases: NCI anticancer screen, dose series, 48 h
BT-549 breast = tested on: BT-549 breast
HCT-15 colon = tested on: HCT-15 colon
K-562 leukemia = tested on: K-562 leukemia
SN12C renal = tested on: SN12C renal
M14 melanoma = tested on: M14 melanoma
U251 CNS = tested on: U251 CNS
HCC-2998 colon = tested on: HCC-2998 colon
HCT-116 colon = tested on: HCT-116 colon
UACC-257 melanoma = tested on: UACC-257 melanoma
CCRF-CEM leukemia = tested on: CCRF-CEM leukemia
HL-60(TB) leukemia = tested on: HL-60(TB) leukemia
SF-268 CNS = tested on: SF-268 CNS
A549 NSCLC = tested on: A549 NSCLC
OVCAR-5 ovarian = tested on: OVCAR-5 ovarian
SW-620 colon = tested on: SW-620 colon
HT29 colon = tested on: HT29 colon
T-47D breast = tested on: T-47D breast
NCI-H23 lung = tested on: NCI-H23 lung
SR leukemia = tested on: SR leukemia
SK-MEL-2 melanoma = tested on: SK-MEL-2 melanoma
KM12 colon = tested on: KM12 colon
TK-10 renal = tested on: TK-10 renal
LOX IMVI melanoma = tested on: LOX IMVI melanoma
PC-3 prostate = tested on: PC-3 prostate
SK-MEL-28 melanoma = tested on: SK-MEL-28 melanoma
UACC-62 melanoma = tested on: UACC-62 melanoma
COLO 205 colon = tested on: COLO 205 colon
EKVX NSCLC = tested on: EKVX NSCLC
RPMI-8226 leukemia = tested on: RPMI-8226 leukemia
MDA-MB-231 breast = tested on: MDA-MB-231 breast
A498 renal = tested on: A498 renal
NCI-H460 lung = tested on: NCI-H460 lung
IGROV1 ovarian = tested on: IGROV1 ovarian
OVCAR-4 ovarian = tested on: OVCAR-4 ovarian
SK-MEL-5 melanoma = tested on: SK-MEL-5 melanoma
HOP-92 NSCLC = tested on: HOP-92 NSCLC
NCI-H226 lung = tested on: NCI-H226 lung
MCF7 breast = tested on: MCF7 breast
ACHN renal = tested on: ACHN renal
CAKI-1 renal = tested on: CAKI-1 renal
NCI-H522 lung = tested on: NCI-H522 lung
SNB-19 CNS = tested on: SNB-19 CNS
SNB-75 CNS = tested on: SNB-75 CNS
OVCAR-8 ovarian = tested on: OVCAR-8 ovarian
SF-295 CNS = tested on: SF-295 CNS
786-0 renal = tested on: 786-0 renal
HOP-62 NSCLC = tested on: HOP-62 NSCLC
SK-OV-3 ovarian = tested on: SK-OV-3 ovarian
SF-539 CNS = tested on: SF-539 CNS
OVCAR-3 ovarian = tested on: OVCAR-3 ovarian
UO-31 renal = tested on: UO-31 renal
MOLT-4 leukemia = tested on: MOLT-4 leukemia
MALME-3M melanoma = tested on: MALME-3M melanoma
DU-145 prostate = tested on: DU-145 prostate
RXF 393 renal = tested on: RXF 393 renal
NCI/ADR-RES ovarian = tested on: NCI/ADR-RES ovarian
MDA-MB-435 = tested on: MDA-MB-435

COc1ccc(/C=C/C(c2cc(OC)c(OC)c(OC)c2)n2cncn2)cc1O (stereo not given)
GI50 (BT-549 breast): 0.0712 µM
TGI (BT-549 breast): 37.1 µM
GI50 (HCT-15 colon): 0.0508 µM
TGI (HCT-15 colon): > 100 µM
GI50 (K-562 leukemia): 0.032 µM
TGI (K-562 leukemia): > 100 µM
GI50 (SN12C renal): 7.19 µM
TGI (SN12C renal): > 100 µM
GI50 (M14 melanoma): 0.0287 µM
TGI (M14 melanoma): 5.12 µM
GI50 (U251 CNS): 0.0506 µM
TGI (U251 CNS): 56.4 µM
GI50 (HCC-2998 colon): 3 µM
TGI (HCC-2998 colon): > 100 µM
GI50 (HCT-116 colon): 0.041 µM
TGI (HCT-116 colon): > 100 µM
GI50 (UACC-257 melanoma): > 100 µM
TGI (UACC-257 melanoma): > 100 µM
GI50 (CCRF-CEM leukemia): 0.032 µM
TGI (CCRF-CEM leukemia): > 100 µM
GI50 (HL-60(TB) leukemia): 0.0245 µM
TGI (HL-60(TB) leukemia): 0.0627 µM
GI50 (SF-268 CNS): 0.059 µM
TGI (SF-268 CNS): > 100 µM
GI50 (A549 NSCLC): 4.56 µM
TGI (A549 NSCLC): > 100 µM
GI50 (OVCAR-5 ovarian): 4.48 µM
TGI (OVCAR-5 ovarian): 72.6 µM
GI50 (SW-620 colon): 0.0394 µM
TGI (SW-620 colon): > 100 µM
GI50 (HT29 colon): 3.68 µM
TGI (HT29 colon): 17.2 µM
GI50 (T-47D breast): > 100 µM
TGI (T-47D breast): > 100 µM
GI50 (NCI-H23 lung): 3.47 µM
TGI (NCI-H23 lung): > 100 µM
GI50 (SR leukemia): 0.0248 µM
TGI (SR leukemia): > 100 µM
GI50 (SK-MEL-2 melanoma): 0.0438 µM
TGI (SK-MEL-2 melanoma): > 100 µM
GI50 (KM12 colon): 0.0405 µM
TGI (KM12 colon): > 100 µM
GI50 (TK-10 renal): 21.2 µM
TGI (TK-10 renal): > 100 µM
GI50 (LOX IMVI melanoma): 0.0511 µM
TGI (LOX IMVI melanoma): > 100 µM
GI50 (PC-3 prostate): 0.036 µM
TGI (PC-3 prostate): > 100 µM
GI50 (SK-MEL-28 melanoma): 3.62 µM
TGI (SK-MEL-28 melanoma): > 100 µM
GI50 (UACC-62 melanoma): 0.0476 µM
TGI (UACC-62 melanoma): > 100 µM
GI50 (COLO 205 colon): 3.66 µM
TGI (COLO 205 colon): 16.8 µM
GI50 (EKVX NSCLC): 6.07 µM
TGI (EKVX NSCLC): > 100 µM
GI50 (RPMI-8226 leukemia): 0.037 µM
TGI (RPMI-8226 leukemia): 42.2 µM
GI50 (MDA-MB-231 breast): 3.02 µM
TGI (MDA-MB-231 breast): > 100 µM
GI50 (A498 renal): 3.13 µM
TGI (A498 renal): 9.09 µM
GI50 (NCI-H460 lung): 0.0423 µM
TGI (NCI-H460 lung): 51.9 µM
GI50 (IGROV1 ovarian): 5.83 µM
TGI (IGROV1 ovarian): > 100 µM
GI50 (OVCAR-4 ovarian): 7.05 µM
TGI (OVCAR-4 ovarian): > 100 µM
GI50 (SK-MEL-5 melanoma): 0.0458 µM
TGI (SK-MEL-5 melanoma): 35.4 µM
GI50 (HOP-92 NSCLC): 67 µM
TGI (HOP-92 NSCLC): > 100 µM
GI50 (NCI-H226 lung): 5.93 µM
TGI (NCI-H226 lung): > 100 µM
GI50 (MCF7 breast): 0.033 µM
TGI (MCF7 breast): > 100 µM
GI50 (ACHN renal): 0.0578 µM
TGI (ACHN renal): > 100 µM
GI50 (CAKI-1 renal): 2.83 µM
TGI (CAKI-1 renal): > 100 µM

CCC(C)CC(CC)NCCN1CCN(C(CC)CC(C)CC)C1=S (stereo not given)
GI50 (BT-549 breast): 2.39 µM
TGI (BT-549 breast): 4.52 µM
GI50 (HCT-15 colon): 1.79 µM
TGI (HCT-15 colon): 3.4 µM
GI50 (SN12C renal): 2.55 µM
TGI (SN12C renal): 7.83 µM
GI50 (M14 melanoma): 1.79 µM
TGI (M14 melanoma): 3.25 µM
GI50 (U251 CNS): 1.55 µM
TGI (U251 CNS): 2.88 µM
GI50 (HCC-2998 colon): 1.57 µM
TGI (HCC-2998 colon): 2.9 µM
GI50 (NCI-H522 lung): 1.74 µM
TGI (NCI-H522 lung): 3.24 µM
GI50 (HCT-116 colon): 1.79 µM
TGI (HCT-116 colon): 3.27 µM
GI50 (SNB-19 CNS): 1.73 µM
TGI (SNB-19 CNS): 3.87 µM
GI50 (UACC-257 melanoma): 1.65 µM
TGI (UACC-257 melanoma): 3.1 µM
GI50 (SNB-75 CNS): 1.49 µM
TGI (SNB-75 CNS): 2.82 µM
GI50 (CCRF-CEM leukemia): 1.86 µM
TGI (CCRF-CEM leukemia): 4.98 µM
GI50 (HL-60(TB) leukemia): 1.93 µM
TGI (HL-60(TB) leukemia): 3.77 µM
GI50 (SF-268 CNS): 1.92 µM
TGI (SF-268 CNS): 4.11 µM
GI50 (A549 NSCLC): 1.76 µM
TGI (A549 NSCLC): 3.37 µM
GI50 (OVCAR-8 ovarian): 1.66 µM
TGI (OVCAR-8 ovarian): 3.05 µM
GI50 (OVCAR-5 ovarian): 1.72 µM
TGI (OVCAR-5 ovarian): 3.32 µM
GI50 (SW-620 colon): 1.89 µM
TGI (SW-620 colon): 3.55 µM
GI50 (HT29 colon): 1.67 µM
TGI (HT29 colon): 3.1 µM
GI50 (SF-295 CNS): 1.86 µM
TGI (SF-295 CNS): 3.68 µM
GI50 (786-0 renal): 1.83 µM
TGI (786-0 renal): 3.3 µM
GI50 (T-47D breast): 1.72 µM
TGI (T-47D breast): 3.57 µM
GI50 (HOP-62 NSCLC): 1.82 µM
TGI (HOP-62 NSCLC): 3.21 µM
GI50 (SK-OV-3 ovarian): 1.86 µM
TGI (SK-OV-3 ovarian): 3.36 µM
GI50 (NCI-H23 lung): 1.74 µM
TGI (NCI-H23 lung): 3.5 µM
GI50 (SR leukemia): 1.87 µM
TGI (SR leukemia): 4.12 µM
GI50 (SK-MEL-2 melanoma): 1.89 µM
TGI (SK-MEL-2 melanoma): 3.41 µM
GI50 (KM12 colon): 1.71 µM
TGI (KM12 colon): 3.22 µM
GI50 (SF-539 CNS): 1.97 µM
TGI (SF-539 CNS): 3.43 µM
GI50 (TK-10 renal): 3.16 µM
TGI (TK-10 renal): 11 µM
GI50 (LOX IMVI melanoma): 1.57 µM
TGI (LOX IMVI melanoma): 2.91 µM
GI50 (PC-3 prostate): 2.05 µM
TGI (PC-3 prostate): 6.87 µM
GI50 (OVCAR-3 ovarian): 1.97 µM
TGI (OVCAR-3 ovarian): 4.08 µM
GI50 (SK-MEL-28 melanoma): 1.69 µM
TGI (SK-MEL-28 melanoma): 3.06 µM
GI50 (UACC-62 melanoma): 1.65 µM
TGI (UACC-62 melanoma): 3.05 µM
GI50 (UO-31 renal): 2.39 µM
TGI (UO-31 renal): 8.68 µM
GI50 (COLO 205 colon): 1.6 µM
TGI (COLO 205 colon): 2.95 µM
GI50 (EKVX NSCLC): 1.93 µM
TGI (EKVX NSCLC): 5.13 µM
GI50 (RPMI-8226 leukemia): 1.85 µM
TGI (RPMI-8226 leukemia): 4.25 µM
GI50 (MOLT-4 leukemia): 2.22 µM
TGI (MOLT-4 leukemia): 5.19 µM
GI50 (MDA-MB-231 breast): 1.84 µM
TGI (MDA-MB-231 breast): 3.55 µM
GI50 (NCI-H460 lung): 2.5 µM
TGI (NCI-H460 lung): 4.1 µM
GI50 (MALME-3M melanoma): 1.74 µM
TGI (MALME-3M melanoma): 3.19 µM
GI50 (DU-145 prostate): 2.17 µM
TGI (DU-145 prostate): 4.71 µM
GI50 (RXF 393 renal): 1.5 µM
TGI (RXF 393 renal): 2.82 µM
GI50 (IGROV1 ovarian): 2.23 µM
TGI (IGROV1 ovarian): 4.53 µM
GI50 (OVCAR-4 ovarian): 1.59 µM
TGI (OVCAR-4 ovarian): 3.91 µM
GI50 (NCI/ADR-RES ovarian): 1.66 µM
TGI (NCI/ADR-RES ovarian): 3.39 µM
GI50 (SK-MEL-5 melanoma): 1.61 µM
TGI (SK-MEL-5 melanoma): 2.95 µM
GI50 (HOP-92 NSCLC): 1.05 µM
TGI (HOP-92 NSCLC): 2.96 µM
GI50 (NCI-H226 lung): 1.85 µM
TGI (NCI-H226 lung): 4.02 µM
GI50 (MCF7 breast): 1.63 µM
TGI (MCF7 breast): 2.98 µM
GI50 (ACHN renal): 1.76 µM
TGI (ACHN renal): 3.14 µM
GI50 (MDA-MB-435): 1.77 µM
TGI (MDA-MB-435): 3.39 µM
GI50 (CAKI-1 renal): 1.8 µM
TGI (CAKI-1 renal): 3.66 µM
